Values quoted from earlier work, collected in US20080176830A1, “Compounds, Compositions, and Methods” (priority 2005, published 2008).

System: A549 cells
Conditions: data provided by National Cancer Institute

| Structure (SMILES) | GI50 [nM] |
| --- | --- |
| O=c1[nH]cc(F)c(=O)[nH]1 [5-fluorouracil] | 1000 |
| COc1cccc2c1C(=O)c1c(O)c3c(c(O)c1C2=O)C[C@@](O)(C(=O)CO)C[C@@H]3O[C@H]1C[C@H](N)[C@H](O)[C@H](C)O1 [doxorubicin] | 63 |
| NC(=O)NO [hydroxyurea] | 500000 |
| CC(=O)O[C@H]1C(=O)[C@@]2(C)[C@H]([C@H](OC(=O)c3ccccc3)[C@]3(O)C[C@H](OC(=O)[C@H](O)[C@@H](NC(=O)c4ccccc4)c4ccccc4)C(C)=C1C3(C)C)[C@]1(OC(C)=O)CO[C@@H]1C[C@@H]2O [paclitaxel] | 4 |
